The record followed here is patent US9604964B2, “Dihydropyrazole GPR40 modulators” (BRISTOL-MYERS SQUIBB COMPANY, priority 2012, dated 2017).

For orientation: EC50 means the midpoint of the concentration-response curve.

Sequence of human GPR40 (O14842 whole entry): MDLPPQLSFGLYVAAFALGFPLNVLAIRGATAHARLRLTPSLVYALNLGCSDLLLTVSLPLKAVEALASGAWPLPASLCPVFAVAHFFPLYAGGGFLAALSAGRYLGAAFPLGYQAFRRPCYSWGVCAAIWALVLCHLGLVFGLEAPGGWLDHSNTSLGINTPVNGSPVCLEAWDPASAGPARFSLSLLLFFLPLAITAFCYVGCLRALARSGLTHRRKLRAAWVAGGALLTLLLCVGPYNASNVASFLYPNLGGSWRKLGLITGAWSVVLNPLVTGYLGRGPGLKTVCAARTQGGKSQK

This assay concerns the target human GPR40 (Homo sapiens, UniProt O14842). In words: FDSS-based intracellular calcium assay (Human GPR40 in vitro assay). Type of assay: cell-based. On the set-up: 3xFLAG; expressed in transfected cells. To be noted: intracellular Ca2+ response, cells expressing GPR40; read-out: hGPR40 EC50. As to the method:
FDSS-based Intracellular Calcium Assay
Compounds are dissolved in DMSO and diluted to desired concentrations with assay buffer and added to the cells as 3× solution (20 μL per well). Run fluorescence/luminescence reader FDSS (Hamamatsu) to read intracellular Ca^2+ response.
In general terms: Calcium flux is commonly read through the fluorescence of an indicator in the cells.
As to `C[C@@H]1C(C(F)(F)F)=NN(c2ccc(OC3CCN(c4cc5c(cc4Cl)OCCO5)CC3)cc2)[C@H]1CC(=O)O` [Example B15, 2-((4S,5S)-1-(4-((1-(7-Chloro-2,3-dihydrobenzo[b][1,4]dioxin-6-yl)piperidin-4-yl)oxy)phenyl)-4-methyl-3-(trifluoromethyl)-4,5-dihydro-1H-pyrazol-5-yl)acetic acid], the EC50 was found to be 325 nM.

For the compound `COc1cc(N2CCC(Oc3ccc(N4N=C(C(F)(F)F)[C@@H](C)[C@@H]4CC(=O)O)cn3)C(C)C2)c(Cl)cn1` (single isomer, unassigned) [Example 103 Isomer 1], the EC50 is 533 nM. As for `CCOc1cc(F)c(F)c(N2CCC(Oc3ccc(N4N=C(c5ccc(F)c(F)c5)[C@@H](C)[C@@H]4CC(=O)O)cc3)CC2)c1` [Example 97, 2-((4S,5S)-3-(3,4-difluorophenyl)-1-(4-((1-(5-ethoxy-2,3-difluorophenyl)piperidin-4-yl)oxy)phenyl)-4-methyl-4,5-dihydro-1H-pyrazol-5-yl)acetic acid], the EC50 came out at 3140 nM. As to `C[C@@H]1C(C(F)(F)F)=NN(c2ccc(OC3CCN(c4ccc(C(F)(F)F)cn4)CC3)cc2)[C@H]1CC(=O)O` [Example 6, 2-((4S,5S)-4-methyl-3-(trifluoromethyl)-1-(4-((1-(5-(trifluoromethyl)pyridin-2-yl)piperidin-4-yl)oxy)phenyl)-4,5-dihydro-1H-pyrazol-5-yl)acetic acid], the EC50 came out at 7520 nM. Turning to `CCOc1ccc(F)c(N2CCC(Oc3ccc(N4N=C(c5ccc(C#N)c(C#N)c5)[C@@H](C)[C@@H]4CC(=O)O)cc3)CC2)c1` [Example 96, 2-((4S,5S)-3-(3,4-dicyanophenyl)-1-(4-((1-(5-ethoxy-2-fluorophenyl)piperidin-4-yl)oxy)phenyl)-4-methyl-4,5-dihydro-1H-pyrazol-5-yl)acetic acid], the EC50 came to 1570 nM. In the case of `CCOc1ccc(F)c(N2CCC(Cc3ccc(N4N=C(C(F)(F)F)[C@@H](C)[C@@H]4CC(=O)O)cc3)C(C)C2)c1` (single isomer, unassigned) [Example 3 (Isomer 3)], the EC50 came out at 1140 nM. The same measure for `C[C@@H]1C(C(F)(F)F)=NN(c2ccc(OC3CCN(c4nccc(C(F)(F)F)n4)CC3)cc2)[C@H]1CC(=O)O` [Example 20, 2-((4S,5S)-4-methyl-3-(trifluoromethyl)-1-(4-((1-(4-(trifluoromethyl)pyrimidin-2-yl)piperidin-4-yl)oxy)phenyl)-4,5-dihydro-1H-pyrazol-5-yl)acetic acid]: 1420 nM; for `C[C@@H]1C(C(F)(F)F)=NN(c2ccc(OC3CCN(c4cccc5c4OCCO5)CC3)cc2)[C@H]1CC(=O)O` [Example B19, 2-((4S,5S)-1-(4-((1-(2,3-Dihydrobenzo[b][1,4]dioxin-5-yl)piperidin-4-yl)oxy)phenyl)-4-methyl-3-(trifluoromethyl)-4,5-dihydro-1H-pyrazol-5-yl)acetic acid]: 6200 nM; for `C[C@@H]1C(C(F)(F)F)=NN(c2ccc(OC3CCN(c4cc(OC5CCCC5)cc(F)c4F)CC3)cc2)[C@H]1CC(=O)O` [Example 19, 2-((4S,5S)-1-(4-((1-(5-(cyclopentyloxy)-2,3-difluorophenyl)piperidin-4-yl)oxy)phenyl)-4-methyl-3-(trifluoromethyl)-4,5-dihydro-1H-pyrazol-5-yl)acetic acid]: 4820 nM. With `C[C@@H]1C(C(F)(F)F)=NN(c2ccc(OCC3CN(C(=O)OC(C)(C)C)C3)cc2)[C@H]1CC(=O)O` [Example B30, 2-((4S,5S)-1-(4-((1-(tert-Butoxycarbonyl)azetidin-3-yl)methoxy)phenyl)-4-methyl-3-(trifluoromethyl)-4,5-dihydro-1H-pyrazol-5-yl)acetic acid], the EC50 was determined as 2770 nM. Take `C[C@@H]1C(C(F)(F)F)=NN(c2ccc(CC3C4CCC3CN(C(=O)OCc3ccccc3)C4)cc2)[C@H]1CC(=O)O` (stereo partly drawn) [Example B11, 2-((4S,5S)-1-(4-(((1R,5S,8S)-3-((benzyloxy)carbonyl)-3-azabicyclo[3.2.1]octan-8-yl)methyl)phenyl)-4-methyl-3-(trifluoromethyl)-4,5-dihydro-1H-pyrazol-5-yl)acetic acid]: the EC50 came out at 7380 nM. To `COCC1CN(c2cc(OC)ncc2Cl)CCC1Oc1ccc(N2N=C(C(F)(F)F)[C@@H](C)[C@@H]2CC(=O)O)cc1` (single isomer, unassigned) [Example B3, Isomer 3] belongs 2000 nM; to `COc1cccc(N2CC(COc3ccc(N4N=C(C(F)(F)F)[C@@H](C)[C@@H]4CC(=O)O)cc3)C2)c1` [Example B32, 2-((4S,5S)-1-(4-((1-(3-Methoxyphenyl)azetidin-3-yl)methoxy)phenyl)-4-methyl-3-(trifluoromethyl)-4,5-dihydro-1H-pyrazol-5-yl)acetic acid], 1090 nM; to `CCOc1ccc(F)c(N2CCC(Oc3ccc(N4N=C(C#N)C(C)C4CC(=O)O)cc3)C(C)C2)c1` (single isomer, unassigned) [Example B7, Isomer 1, 2-(3-Cyano-1-(4-((1-(5-ethoxy-2-fluorophenyl)-3-methylpiperidin-4-yl)oxy)phenyl)-4-methyl-4,5-dihydro-1H-pyrazol-5-yl)acetic acid], 394 nM. On to `COCC1CN(c2cc(OC)ncc2Cl)CCC1Oc1ccc(N2N=C(C(F)(F)F)[C@@H](C)[C@@H]2CC(=O)O)cc1` (single isomer, unassigned) [Example B3, Isomer 1], for which the EC50 was 352 nM. The same measure for `CCOc1ccc(F)c(N2CCC(Oc3ccc(N4N=C(C(F)(F)F)[C@@H](C)[C@@H]4CC(=O)O)cc3)C(OC)C2)c1` (single isomer, unassigned) [Example 31 (Isomer 2)]: 910 nM. The same measure for `CCOc1ccc(F)c(N2CCC(Oc3ccc(N4N=C(C(F)(F)F)[C@@H](C)[C@@H]4CC(=O)O)cc3)C(Cc3ccccc3)C2)c1` (single isomer, unassigned) [Example 28 (Isomer 1)]: 132 nM; for `CCOc1ccc(F)c(N2CCC(Cc3ccc(N4N=C(C(F)(F)F)[C@@H](C)[C@@H]4CC(=O)O)cc3)C(C)C2)c1` (single isomer, unassigned) [Example 3 (Isomer 1)]: 3220 nM; for `COc1cc(N2CCC(Cc3ccc(N4N=C(C(F)(F)F)[C@@H](C)[C@@H]4CC(=O)O)cc3)CC2)ccn1` [Example B9, 2-((4S,5S)-1-(4-((1-(2-methoxypyridin-4-yl)piperidin-4-yl)methyl)phenyl)-4-methyl-3-(trifluoromethyl)-4,5-dihydro-1H-pyrazol-5-yl)acetic acid]: 2660 nM.

For the compound `CCOc1ccc(F)c(N2CCC(Oc3ccc(N4N=C(c5ccc(C(=O)O)cc5F)[C@@H](C)[C@@H]4CC(=O)O)cc3)CC2)c1` [Example B4, 4-((4S,5S)-5-(carboxymethyl)-1-(4-((1-(5-ethoxy-2-fluorophenyl)piperidin-4-yl)oxy)phenyl)-4-methyl-4,5-dihydro-1H-pyrazol-3-yl)-3-fluorobenzoic acid], the EC50 worked out at 4950 nM. As to `COc1ccc(F)c(N2C(=O)[C@@H]3C[C@H]2CC3Oc2ccc(N3N=C(C(F)(F)F)[C@@H](C)[C@@H]3CC(=O)O)cc2)c1` (stereo partly drawn) [Example 68, 2-((4S,5S)-1-(4-(((1S,4R)-2-(2-fluoro-5-methoxyphenyl)-3-oxo-2-azabicyclo[2.2.1]heptan-5-yl)oxy)phenyl)-4-methyl-3-(trifluoromethyl)-4,5-dihydro-1H-pyrazol-5-yl)acetic acid], the EC50 was 5040 nM. As to `COc1ccc(F)c(N2CCC(Cc3ccc(N4N=C(C(F)(F)F)[C@@H](C)[C@@H]4CC(=O)O)cc3)CC2)c1` [Example 100, 2-((4S,5S)-1-(4-((1-(2-fluoro-5-methoxyphenyl)piperidin-4-yl)methyl)phenyl)-4-methyl-3-(trifluoromethyl)-4,5-dihydro-1H-pyrazol-5-yl)acetic acid], the EC50 turned out to be 266 nM. To `C[C@@H]1C(C(F)(F)F)=NN(c2ccc(OC3CCN(c4cc5c(cc4Cl)CCO5)CC3)cc2)[C@H]1CC(=O)O` [Example 4, 2-((4S,5S)-1-(4-((1-(5-chloro-2,3-dihydrobenzofuran-6-yl)piperidin-4-yl)oxy)phenyl)-4-methyl-3-(trifluoromethyl)-4,5-dihydro-1H-pyrazol-5-yl)acetic acid] belongs 1040 nM. For `Cc1ccccc1S(=O)(=O)N1CCC(Oc2ccc(N3N=C(C(F)(F)F)[C@@H](C)[C@@H]3CC(=O)O)cc2)CC1` [Example B27, 2-((4S,5S)-4-Methyl-1-(4-((1-(o-tolylsulfonyl)piperidin-4-yl)oxy)phenyl)-3-(trifluoromethyl)-4,5-dihydro-1H-pyrazol-5-yl)acetic acid], the EC50 amounted to 4850 nM.

Consider `COc1cc(N2CC[C@@H](Oc3ccc(N4N=C(C(F)(F)F)[C@@H](C)[C@@H]4CC(=O)O)cc3)[C@H](CO)C2)c(Cl)cn1` [Example B1, 2-((4S,5S)-1-(4-(((3S,4R)-1-(5-chloro-2-methoxypyridin-4-yl)-3-(hydroxymethyl)piperidin-4-yl)oxy)phenyl)-4-methyl-3-(trifluoromethyl)-4,5-dihydro-1H-pyrazol-5-yl)acetic acid], for which the EC50 was 2480 nM. With `C[C@@H]1C(C(F)(F)F)=NN(c2ccc(OC3CCN(c4cc(-c5ncco5)ccc4F)CC3)cc2)[C@H]1CC(=O)O` [Example B17, 2-((4S,5S)-1-(4-((1-(2-Fluoro-5-(oxazol-2-yl)phenyl)piperidin-4-yl)oxy)phenyl)-4-methyl-3-(trifluoromethyl)-4,5-dihydro-1H-pyrazol-5-yl)acetic acid], the EC50 was 2490 nM. Regarding `CCCc1cnc(N2CCC(Oc3ccc(N4N=C(C(F)(F)F)[C@@H](C)[C@@H]4CC(=O)O)cc3)CC2)nc1` [Example 5, 2-((4S,5S)-4-methyl-1-(4-((1-(5-propylpyrimidin-2-yl)piperidin-4-yl)oxy)phenyl)-3-(trifluoromethyl)-4,5-dihydro-1H-pyrazol-5-yl)acetic acid], the EC50 was determined as 5810 nM.
